Laboratory results from ChEMBL document CHEMBL3853302, “Anti-inflammatory and Quinone Reductase Inducing Compounds from Fermented Noni (Morinda citrifolia) Juice Exudates” (J Nat Prod, 2016).
The source made the active and inactive calls. The calls are words filed in the database; no cut-off is given here.

Columns and labels:
[1] = Induction of quinone reductase-1 in mouse Hepa-1c1c7 cells assessed as reduction of 3-(4,5-dimethylthiazol-2-yl)-2,5-diphenyltetrazolium bromide at 50 uM after 48 hrs by crystal violet staining-based assay relative to control
[2] = Toxicity in HEK293 cells assessed as decrease in cell survival at 50 uM; type: cell-based; conditions: human, hek293, 50 µM
[3] = system: HEK293; assay: Inhibition of TNF-alpha-activated NFkappaB (unknown origin) expressed in HEK293 cells at 50 uM after 6 hrs by luciferase reporter gene assay relative to control; type: cell-based; conditions: Homo sapiens
[4] = Inhibition of TNF-alpha-activated NFkappaB (unknown origin) transfected in HEK293 cells after 6 hrs by luciferase reporter gene assay; type: cell-based; conditions: Homo sapiens, HEK293, 6 h

fold change (FC) [1]	Compound	Activity [2]	inhibition [3] [%]	also measured
–	COc1cc2oc(=O)ccc2cc1O[C@@H]1O[C@H](CO)[C@@H](O)[C@H](O)[C@H]1O	–	–	Activity [1]: Active
2.5	COC(=O)C1=CO[C@@H](O[C@@H]2O[C@H](CO)[C@@H](O)[C@H](O)[C@H]2O)[C@@H]2C(CO)=C[C@@H](O)[C@H]12	–	–	–
–	O=C1O[C@@H]2[C@@H](O)CO[C@]2(O)[C@@]1(O)C/C=C/c1ccc(O)c(O)c1	Non-Toxic	70	–
–	C[C@@H]1O[C@@H](OC[C@H]2O[C@@H](Oc3c(-c4ccc(O)cc4)oc4cc(O)cc(O)c4c3=O)[C@H](O)[C@@H](O)[C@@H]2O)[C@H](O)[C@H](O)[C@H]1O [NICOTIFLOROSIDE]	Non-Toxic	62	–
–	Cc1ccc(S(=O)(=O)N[C@@H](Cc2ccccc2)C(=O)CCl)cc1 [TPCK]	–	–	IC50 [4]: 3.8 µM
2.3	CCCCO[C@H]1C=C(CO)[C@H]2[C@H](O[C@@H]3O[C@H](CO)[C@@H](O)[C@H](O)[C@H]3O)OC=C(C(=O)O)[C@H]21	–	–	–
